Data published in ChEMBL document CHEMBL5634124, “Discovery and optimization of indirubin derivatives as novel ferroptosis inducers for the treatment of colon cancer” (Eur J Med Chem, 2023).
Values belong to the molecule of their own block, whether it stands above or below them. Calls of active or inactive are those of the source. The rule behind the calls is not given here.

Key:
HCT-116 [1] = assay: Cytotoxicity against human HCT-116 cells assessed as inhibition of cell viability incubated for 48 hrs by CCK8 assay; type: functional, cell-based; conditions: HCT-116, 48 h
[2] = Kinetic solubility of compound at pH 7.4; type: physicochemical; conditions: buffer, read-out: Kinetic_solubility
HCT-116 [3] = assay: Inhibition of colony formation in human HCT-116 cells treated for 48 hrs followed by replacement of growth medium without compound every other day measured after 2 weeks by crystal violet staining based assay; type: functional, cell-based; conditions: dose <= 1.0 µM
HCT-116 [4] = assay: Cytotoxicity against human HCT-116 cells assessed as inhibition of cell viability incubated for 48 hrs in presence of Nec by CCK8 assay; type: functional, cell-based
HCT-116 [5] = assay: Cytotoxicity against human HCT-116 cells assessed as inhibition of cell viability incubated for 48 hrs in presence of 3-MA by CCK8 assay; type: functional, cell-based
HCT-116 [6] = assay: Cytotoxicity against human HCT-116 cells assessed as inhibition of cell viability incubated for 48 hrs in presence of Z-VAD by CCK8 assay; type: functional, cell-based
HCT-116 [7] = assay: Cytotoxicity against human HCT-116 cells assessed as inhibition of cell viability incubated for 48 hrs in presence of NAC by CCK8 assay; type: functional, cell-based
HCT-116 [8] = assay: Cytotoxicity against human HCT-116 cells assessed as inhibition of cell viability incubated for 48 hrs in presence of DFO by CCK8 assay; type: functional, cell-based
HCT-116 [9] = assay: Cytotoxicity against human HCT-116 cells assessed as inhibition of cell viability incubated for 48 hrs in presence of Fer-1 by CCK8 assay; type: functional, cell-based
HCT-116 [10] = assay: Induction of ferroptosis in human HCT-116 cells assessed as increase in intracellular lipid ROS level incubated for 24 hrs by CLSM analysis; type: functional, cell-based; conditions: dose <= 1.0 µM
HCT-116 [11] = assay: Induction of ferroptosis in human HCT-116 cells assessed as increase in intracellular lipid ROS level incubated for 24 hrs by flow cytometry; type: functional, cell-based; conditions: dose <= 1.0 µM
HCT-116 [12] = assay: Induction of ferroptosis in human HCT-116 cells assessed as increase in intracellular MDA level incubated for 24 hrs; type: functional, cell-based; conditions: dose <= 1.0 µM
HCT-116 [13] = assay: Induction of ferroptosis in human HCT-116 cells assessed as decrease in GSH level upto 1 uM incubated for 24 hrs; type: functional, cell-based
HCT-116 [14] = assay: Induction of ferroptosis in human HCT-116 cells assessed as increase in Fe2+ level upto 1 uM incubated for 24 hrs by flow cytometry; type: functional, cell-based
[15] = target: T1, Phospholipid hydroperoxide glutathione peroxidase GPX4 (Homo sapiens) (UniProt P36969); assay: Inhibition of GPX4 in human HCT-116 cells at 0.5 uM by Western blot analysis; type: cell-based; conditions: time <= 48.0 hrs, TDE = time-dependent effect
T1 sequence (whole entry): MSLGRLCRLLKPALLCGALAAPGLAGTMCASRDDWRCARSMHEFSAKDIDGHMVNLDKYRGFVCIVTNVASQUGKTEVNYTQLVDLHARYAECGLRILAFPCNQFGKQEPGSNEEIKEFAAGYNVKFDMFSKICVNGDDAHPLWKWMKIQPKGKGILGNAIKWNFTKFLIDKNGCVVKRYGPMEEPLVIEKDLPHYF

[16] = target: T1, Phospholipid hydroperoxide glutathione peroxidase GPX4 (Homo sapiens); assay: Inhibition of GPX4 in human HCT-116 cells incubated for 24 hrs by Western blot analysis; type: cell-based; conditions: dose <= 1.0 µM
[17] = target: T2, Phospholipid hydroperoxide glutathione peroxidase GPX4 (Homo sapiens, UniProt P36969); assay: Inhibition of GPX4 (unknown origin) incubated for 1 hr by absorbance based assay
T2 sequence (P36969 whole entry): T1 sequence (whole entry)

HCT-116 [18] = assay: Effect on FSP1 expression in human HCT-116 cells; type: functional, cell-based
HCT-116 [19] = assay: Effect on ACSL4 expression in human HCT-116 cells; type: functional, cell-based
HCT-116 [20] = assay: Effect on SLC7A11 expression in human HCT-116 cells; type: functional, cell-based
HCT-116 [21] = assay: Effect on NCOA4 expression in human HCT-116 cells; type: functional, cell-based
[22] = target: T1, Phospholipid hydroperoxide glutathione peroxidase GPX4 (Homo sapiens); assay: Inhibition of GPX4 in human HCT-116 cells assessed as increase in protein ubiquitination upto 1 uM incubated for 24 hrs by co-immunoprecipitation method; type: cell-based
[23] = Toxicity in BALB/c nude mouse model xenografted with human HCT-116 cells assessed as body weight loss at 25 to 50 mg/kg, ip administered 4 times a week for 3 weeks; type: organism-based; conditions: in vivo, 504 h, dose 25-50 mg/kg
HCT-116 [24] = assay: Antitumor activity against human HCT-116 cells xenografted in BALB/c nude mouse model assessed as tumor growth inhibition at 25 mg/kg, ip administered 4 times a week for 3 weeks relative to control; type: functional; conditions: HCT-116, 504 h, read-out: TGI
HCT-116 [25] = assay: Antitumor activity against human HCT-116 cells xenografted in BALB/c nude mouse model assessed as tumor growth inhibition at 50 mg/kg, ip administered 4 times a week for 3 weeks relative to control; type: functional; conditions: HCT-116, 504 h, read-out: TGI
[26] = Toxicity in BALB/c nude mouse model xenografted with human HCT-116 cells assessed as morphological change in heart at 25 to 50 mg/kg, ip administered 4 times a week for 3 weeks by H and E staining based analysis; type: organism-based; conditions: in vivo, 504 h, dose 25-50 mg/kg
[27] = Toxicity in BALB/c nude mouse model xenografted with human HCT-116 cells assessed as morphological change in liver at 25 to 50 mg/kg, ip administered 4 times a week for 3 weeks by H and E staining based analysis; type: organism-based; conditions: in vivo, 504 h, dose 25-50 mg/kg
[28] = Toxicity in BALB/c nude mouse model xenografted with human HCT-116 cells assessed as morphological change in spleen at 25 to 50 mg/kg, ip administered 4 times a week for 3 weeks by H and E staining based analysis; type: organism-based; conditions: in vivo, 504 h, dose 25-50 mg/kg
[29] = Toxicity in BALB/c nude mouse model xenografted with human HCT-116 cells assessed as morphological change in kidney at 25 to 50 mg/kg, ip administered 4 times a week for 3 weeks by H and E staining based analysis; type: organism-based; conditions: in vivo, 504 h, dose 25-50 mg/kg
[30] = Toxicity in BALB/c nude mouse model xenografted with human HCT-116 cells assessed as morphological change in lungs at 25 to 50 mg/kg, ip administered 4 times a week for 3 weeks by H and E staining based analysis; type: organism-based; conditions: in vivo, 504 h, dose 25-50 mg/kg
HCT-116 [31] = assay: Antitumor activity against human HCT-116 cells xenografted in BALB/c nude mouse model assessed as morphological change in tumor at 25 to 50 mg/kg, ip administered 4 times a week for 3 weeks by H and E staining based analysis; type: functional, organism-based; conditions: dose 25-50 mg/kg
HCT-116 [32] = assay: In vivo inhibition of GPX4 in human HCT-116 cells xenografted in BALB/c nude mouse model at 25 to 50 mg/kg, ip administered 4 times a week for 3 weeks by IHC analysis; type: functional, organism-based; conditions: dose 25-50 mg/kg
[33] = Metabolic stability in human liver microsomes assessed as half life at 0.5 uM incubated for 45 mins by LC/MS analysis; type: ADME, Microsome
[34] = Metabolic stability in human liver microsomes assessed as intrinsic clearance at 0.5 uM incubated for 45 mins by LC/MS analysis; type: ADME, Microsome; conditions: read-out: CLH
[35] = Metabolic stability in human liver microsomes assessed as hepatic clearance rate at 0.5 uM incubated for 45 mins by LC/MS analysis; type: ADME, Microsome

Structure (SMILES): O=C(CCl)CCC(=O)c1ccc2c(c1)C(=O)/C(=C1/C(=O)Nc3ccccc31)N2
- IC50 (HCT-116 [1]): > 20000 nM

Structure (SMILES): O=C1Nc2ccccc2/C1=C1/Nc2ccc(C(=O)Nc3ccc(N4CCN(C(=O)CCl)CC4)cc3)cc2C1=O
- IC50 (HCT-116 [1]): 7540 nM

Structure (SMILES): O=C1Nc2ccccc2/C1=C1/Nc2ccc(C(=O)Nc3ccc(C4CCN(C(=O)CCl)CC4)cc3)cc2C1=O
- IC50 (HCT-116 [1]): > 20000 nM

Structure (SMILES): C=CC(=O)CCCC(=O)c1ccc2c(c1)C(=O)/C(=C1/C(=O)Nc3ccccc31)N2
- IC50 (HCT-116 [1]): > 20000 nM

Structure (SMILES): O=C1Nc2ccccc2/C1=C1/Nc2ccc(C(=O)NC3CCN(C(=O)CCl)CC3)cc2C1=O
- IC50 (HCT-116 [1]): 1810 nM

Structure (SMILES): C#CC(=O)N1CCC(CCNC(=O)c2ccc3c(c2)C(=O)/C(=C2/C(=O)Nc4ccccc42)N3)CC1
- IC50 (HCT-116 [1]): 1850 nM

Structure (SMILES): O=C(CCl)CCCCC(=O)c1ccc2c(c1)C(=O)/C(=C1/C(=O)Nc3ccccc31)N2
- IC50 (HCT-116 [1]): 1720 nM

Structure (SMILES): O=C1Nc2ccccc2/C1=C1/Nc2ccc(C(=O)NN3CCN(C(=O)CCl)CC3)cc2C1=O
- IC50 (HCT-116 [1]): 1440 nM

Structure (SMILES): C#CC(=O)N1CCC(c2ccc(NC(=O)c3ccc4c(c3)C(=O)/C(=C3/C(=O)Nc5ccccc53)N4)cc2)CC1
- IC50 (HCT-116 [1]): > 20000 nM

Structure (SMILES): C#CC(=O)N1CCC(CNC(=O)c2ccc3c(c2)C(=O)/C(=C2/C(=O)Nc4ccccc42)N3)CC1
- IC50 (HCT-116 [1]): 1000 nM

Structure (SMILES): C=CC(=O)N1CCN(NC(=O)c2ccc3c(c2)C(=O)/C(=C2/C(=O)Nc4ccccc42)N3)CC1
- IC50 (HCT-116 [1]): 12400 nM

- solubility kinetic [2]: < 0.5 µg/mL
- inhibition [15]: Tde
- inhibition [16]: Dose-Dependent Effect
- IC50 [17]: 6480 nM
- inhibition [22]: Active
- half-life at 0.5 µM [33]: 17.1 min
- CLint scaled at 0.5 µM [34]: 95.5 mL/min/kg
- CLhep predicted at 0.5 µM [35]: 16.9 mL/min/kg
Structure (SMILES): O=C1Nc2ccccc2/C1=C1/Nc2ccc(C(=O)NCC3CCN(C(=O)CCl)CC3)cc2C1=O
- IC50 (HCT-116 [1]): 490 nM
- inhibition (HCT-116 [3]): Dose-Dependent Effect
- inhibition (HCT-116 [4]): Active
- inhibition (HCT-116 [5]): Active
- inhibition (HCT-116 [6]): Active
- inhibition (HCT-116 [7]): inactive
- inhibition (HCT-116 [8]): inactive
- inhibition (HCT-116 [9]): inactive
- Activity (HCT-116 [10]): Dose-Dependent Effect
- Activity (HCT-116 [11]): Dose-Dependent Effect
- Activity (HCT-116 [12]): Dose-Dependent Effect
- Activity (HCT-116 [13]): Active
- Activity (HCT-116 [14]): Active
- Activity (HCT-116 [18]): inactive
- Activity (HCT-116 [19]): inactive
- Activity (HCT-116 [20]): inactive
- Activity (HCT-116 [21]): inactive
- Activity [23]: Non-Toxic
- inhibition in vivo at 25 mg/kg (HCT-116 [24]): 63.4%
- inhibition in vivo at 50 mg/kg (HCT-116 [25]): 71.5%
- Activity [26]: Non-Toxic
- Activity [27]: Non-Toxic
- Activity [28]: Non-Toxic
- Activity [29]: Non-Toxic
- Activity [30]: Non-Toxic
- Activity (HCT-116 [31]): Active
- inhibition (HCT-116 [32]): Active

Structure (SMILES): O=C1Nc2ccccc2/C1=C1/Nc2ccc(C(=O)NCCN3CCN(C(=O)CCl)CC3)cc2C1=O
- IC50 (HCT-116 [1]): 2270 nM

Structure (SMILES): O=C(CCl)CCCCCC(=O)c1ccc2c(c1)C(=O)/C(=C1/C(=O)Nc3ccccc31)N2
- IC50 (HCT-116 [1]): 2180 nM

Structure (SMILES): C#CC(=O)N1CCN(NC(=O)c2ccc3c(c2)C(=O)/C(=C2/C(=O)Nc4ccccc42)N3)CC1
- IC50 (HCT-116 [1]): 3470 nM

Structure (SMILES): O=C1Nc2ccccc2/C1=C1/Nc2ccc(C(=O)NCCC3CCN(C(=O)CCl)CC3)cc2C1=O
- IC50 (HCT-116 [1]): 720 nM
